Experimental data: patent publication US3998808A, “Compositions of matter D-hetero-1,1-(α-thiocyanoacetyl) compounds” (Velsicol Chemical Corporation, priority 1971, dated 1976)
Read-outs that look alike come from different tables or passages of the source.

Experiments:
Format in all cases: in vivo
[1] = tested on: housefly (Musca domestica); test: housefly knockdown test; conditions: sprayed with formulation containing 3500 ppm; knockdown after 30 minutes, in comparison to a control
Procedure: In one experiment, designated as the housefly knockdown test, 50, 3-day-old, unsexed, adult houseflies were anesthetized with carbon dioxide gas and placed into a fine mesh wire cage. The flies were allowed to recover completely from the effects of the carbon dioxide gas and were then sprayed with a test formulation containing 3500 ppm of the test compound. After 30 minutes the knockdown value of the test compound was determined. Knockdown is considered as an individual fly that is unable to move its body length, and the knowndown value is given as a percent of down flies based on the number of down flies in comparison to a control.

[2] = tested on: housefly (Musca domestica); test: housefly topical test; conditions: read-out: % Control Housefly Topical Test
Procedure: In another experiment designated as the housefly topical test, each of fifty flies was contacted with a test compound by applying […] of test formulation containing 3500 ppm of active chemical to the dorsum of its thorax. The flies were then placed in a wire mesh cage where they were supplied with sugar syrup. At the end of a 24 hour period the mortality of the flies was observed and rated in comparison to a control.

[3] = tested on: pea aphid (Acyrthosiphon pisum); test: whole plant or invertebrate; conditions: sprayed at 3500 ppm, aqueous emulsion of an acetone solution, 48 hours, in comparison to a control, read-out: mortality of the pea aphids
From the text: The insecticidal activity of the compounds of this invention was further illustrated in an experiment for the control of the pea aphid (Acyrthosiphon pisum). In this experiment a ten day old Laxton pea plant contained in a small plastic pot was infested with ten adult pea aphids. The plant and pea aphids were then sprayed with the test compound formulated as an aqueous emulsion of an acetone solution, at a concentration of 3500 ppm. The infested plants were then placed in a holding chamber maintained at a constant temperature for a period of 48 hours. After this time the mortality of the aphids was determined and rated on a percent basis in comparison to a control. In this experiment the compounds 1-(α-thiocyanoacetyl) pyrrolidine and 1-(α-thiocyanoacetyl)-2,6-dimethylpiperidine gave 100% mortality of the pea aphids.

[4] = tested on: leaf rust of wheat (Puccinia rubigo-vera); test: protection of wheat against leaf rust of wheat; conditions: wheat plants sprayed with 1000 ppm solutions before inoculation; about 8 days in greenhouse; in comparison with untreated controls
Procedure: In one experiment carried out for the protection of wheat against leaf rust of wheat (Puccinia rubigo-vera), 6 day old wheat plants were sprayed with 1000 ppm solutions of the test compounds. After the spray film had dried, the plants were inoculated by shaking a 9 to 13 day old leaf rust of wheat culture over the foliage. Immediately after inoculation the plants were placed in a 20° C. moist chamber overnight. The plants were then transferred to a greenhouse and kept there for a period of about 8 days. After this time the extent of the disease was observed and rated in comparison with untreated controls.

[5] = 1 ml of formulation containing 3500 ppm applied to dorsum of thorax, mortality after 24 hours, in comparison to a control

Row | Compound | % Control Housefly Knockdown Test [1] | mortality at 3500 µg/mL [2, 5] | mortality at 3500 ppm [3] | mortality at 3500 µg/mL ([2]; 24 h) | % Control (leaf rust of wheat) [4]
1 | N#CSCC(=O)N1CCCCCC1 [1-(α-thiocyanoacetyl) hexamethylenimine] | 94% | 31% | – | – | –
2 | CC1CCC(C)N1C(=O)CSC#N (stereo not drawn) [1-(α-thiocyanoacetyl)-2,5-dimethylpyrrolidine] | 100% | 100% | – | – | –
3 | CC1CCCC(C)N1C(=O)CSC#N (stereo not drawn) [1-(α-thiocyanoacetyl)-2,6-dimethylpiperidine] | 92% | – | 100% | 94% | 96%
4 | CC1CCCN(C(=O)CSC#N)C1 (stereo not drawn) [1-(α-thiocyanoacetyl)-3-pipecoline] | 100% | 100% | – | – | 90%
5 | CC1CCN(C(=O)CSC#N)CC1 [1-(α-thiocyanoacetyl)-4-pipecoline] | 100% | 100% | – | – | 99%
6 | N#CSCC(=O)N1CCCC1 [1-(γ-Thiocyanoacetyl) pyrrolidine, 1-(α-thiocyanoacetyl) pyrrolidine] | – | – | 100% | – | 98%
